Assay results published in patent US20260373042A1, “PEPTIDE HAVING ACTIVITY OF IMPROVING STATE OF SKIN, AND USE THEREOF” (CAREGEN CO., LTD., priority 2022, published 2026).

Columns and labels:
HaCaT cells [1] = assay: Reactive oxygen species increased by ultraviolet rays in HaCaT cells (DCFH-DA, flow cytometry); format: cell-based, human; conditions: 50 μM or 1000 μM, UV 15 mJ/cm^2, 24 hours after UV, FIG. 7
Protocol: (§1) In this example, the aim was to confirm the effect of the peptide according to an embodiment on the antioxidant effect in damaged skin, by evaluating the change in the level of reactive oxygen species in skin cells increased by ultraviolet irradiation.
(§2) Specifically, NIH3T3 cells or HaCaT cells were seeded in a 6-well plate at a density of 5×10^5 cells/well and cultured for 24 hours. Next, the cells were washed once with serum-free DMEM media, and 50 μM or 1000 μM of a peptide consisting of an amino acid sequence of SEQ ID NO: 1 was dispensed into 1 mL of the serum-free media, and cultured in a CO2 incubator at 37 °C for […]. Next, the above culture was transferred to an e-tube, mixed with 1 ml of PBS, and dispensed into a well plate. Next, using a UV irradiator (VILBER LOURMAT, Cat No.: 3102-BSU, France), 8 J/cm^2 ultraviolet rays were irradiated to NIH3T3 cells, and 15 mJ/cm^2 ultraviolet rays were irradiated to HaCaT cells. Next, the PBS in the well plate was removed, 900 μL of the culture medium in which the peptides were dispensed was added, and the plate was cultured in a CO2 incubator at 37 °C for 24 hours. Next, the culture was treated with DCFH-DA (2′,7′-dichlorofluorescin diacetate), wrapped in foil, and cultured in a CO2 incubator at 37 °C for 30 minutes. […] After washing the centrifuged cells with PBS, fluorescence values were measured through flow cytometry (FACS, BD, USA). […]

NIH3T3 cells [2] = assay: Proliferation (MTT survival rate) of NIH3T3 mouse fibroblasts; format: cell-based; conditions: 50 μM or 100 μM, serum-free DMEM, 72 hours, MTT 540 nm, vs untreated control, FIG. 1A
Protocol: (§3) In this example, the aim was to confirm the effect of a peptide according to an example on proliferation of skin cells, by evaluating changes in survival rate of NIH3T3 cells, which are mouse fibroblasts, or HaCaT cells, which are human keratinocytes.
(§4) Specifically, NIH3T3 cells or HaCaT cells were seeded in a 96-well plate at a density of 5×10^3 cells/well and cultured for 24 hours. Next, the cells were washed once with serum-free DMEM media, and 50 μM or 100 μM of a peptide consisting of an amino acid sequence of SEQ ID NO: 1 was dispensed into 200 μL of the serum-free media, and cultured in a CO2 incubator at 37 °C for 72 hours. Next, the culture was washed twice with PBS, and 0.5 mg/ml of MTT (Sigma, Cat. No.: M2003, USA) solution was dispensed into each well. Next, after being shaded from light, it was cultured in a CO2 incubator at 37 °C for 4 hours. Next, the absorbance at 540 nm was measured. In this example, an untreated group was used as the control group, and a group to which insulin-like growth factor was added (IGF) was used as the positive control group.

SIRT-1 = assay: Expression of sirtuin-1 (SIRT-1) in HaCaT cells, RT-PCR; format: cell-based, human; conditions: 50 μM or 1000 μM, 24 hours, vs untreated control, FIG. 4, 5A
Protocol: (§5) In this example, the aim was to confirm the effect of the peptides according to an example on strengthening the skin barrier, by evaluating the expression levels of sirtuin-1 (SIRT-1) or aquaporin-3 (AQP3).
(§6) Specifically, HaCaT cells were seeded in a 6-well plate at a density of 3×10^5 cells/well and cultured for 24 hours. Next, the cells were washed once with serum-free DMEM media, and 50 μM or 1000 μM of a peptide consisting of an amino acid sequence of SEQ ID NO: 1 was dispensed into 1 mL of the serum-free media, and cultured in a CO2 incubator at 37 °C for 24 hours. Next, the culture was washed twice with PBS, and RNA was isolated from the culture using easy blue (iNtRON, Korea). Using an RT kit (Enzynomics, Korea), 1 μg of the isolated RNA was reverse transcribed to synthesize the respective cDNA. Next, polymerase chain reaction was performed using the cDNAs and primers sirtuin-1 and aquaporin-3. Meanwhile, an untreated group was used as a control group, and a group to which EGF was added (EGF) was used as a positive control group, the nucleotide sequences of the primers used in this example are shown in Table 3 below.

NIH3T3 cells [3] = assay: Reactive oxygen species increased by ultraviolet rays in NIH3T3 cells (DCFH-DA, flow cytometry); format: cell-based, mouse; conditions: 50 μM or 1000 μM, UV 8 J/cm^2, 24 hours after UV, FIG. 6
Protocol: as §1, §2

fibronectin = assay: Expression of fibronectin in NIH3T3 cells, RT-PCR; format: cell-based, mouse; conditions: 50 μM or 1000 μM, 24 hours, vs untreated control, FIG. 2, 3B
Protocol: (§7) In this example, the aim was to confirm the effect of the peptide according to an example on improving endogenous skin aging, including improvement of wrinkles and enhancement of elasticity, etc., by evaluating the expression levels of collagen type 1 (Col1a1), fibronectin, or elastin, which are known components of the dermis.
(§8) Specifically, NIH3T3 cells were seeded in a 6-well plate at a density of 3×10^5 cells/well and cultured for 24 hours. Next, the cells were washed once with serum-free DMEM media, and 50 μM or 1000 μM of a peptide consisting of an amino acid sequence of SEQ ID NO: 1 was dispensed into 1 mL of the serum-free media, and cultured in a CO2 incubator at 37 °C for 24 hours. Next, the culture was washed twice with PBS, and RNA was isolated from the culture using easy blue (iNtRON, Korea). Using an RT kit (Enzynomics, Korea), 1 μg of the isolated RNA was reverse transcribed to synthesize the respective cDNA. Next, polymerase chain reaction (PCR) was performed using the cDNAs and primers Col1a1, fibronectin, and elastin. Meanwhile, an untreated group was used as a control group, and a group to which TGF-β1 was added (TGF-β1) was used as a positive control group, the nucleotide sequences of the primers used in this example are shown in Table 2 below.

AQP3 = assay: Expression of aquaporin-3 (AQP3) in HaCaT cells, RT-PCR; format: cell-based, human; conditions: 50 μM or 1000 μM, 24 hours, vs untreated control, FIG. 4, 5B
Protocol: as §5, §6

Col1a1 = assay: Expression of collagen type 1 (Col1a1) in NIH3T3 cells, RT-PCR; format: cell-based, mouse; conditions: 50 μM or 1000 μM, 24 hours, vs untreated control, FIG. 2, 3A
Protocol: as §7, §8

HaCaT cells [4] = assay: Proliferation (MTT survival rate) of HaCaT human keratinocytes; format: cell-based; conditions: 50 μM or 100 μM, serum-free DMEM, 72 hours, MTT 540 nm, vs untreated control, FIG. 1B
Protocol: as §3, §4

elastin = assay: Expression of elastin in NIH3T3 cells, RT-PCR; format: cell-based, mouse; conditions: 50 μM or 1000 μM, 24 hours, vs untreated control, FIG. 2, 3C
Protocol: as §7, §8

DGWNY [SEQ ID NO: 1]
promoted: proliferation of fibroblasts (NIH3T3 cells [2]) | proliferation of keratinocytes (HaCaT cells [4])
reduced: level of reactive oxygen species in keratinocytes increased by ultraviolet irradiation (HaCaT cells [1]) | level of reactive oxygen species in fibroblasts increased by ultraviolet irradiation (NIH3T3 cells [3])
increased: expression of SIRT-1 (SIRT-1) | expression of fibronectin (fibronectin) | expression of AQP3 (AQP3) | expression of Col1a1 (Col1a1) | expression of elastin (elastin)
